We go through nine compounds from patent US9546129B2, “DTPA prodrugs, compositions thereof, and methods of using the same” (priority 2012, dated 2017).

Series [1] can be described thus: Stability study in water (pH and precipitation of solubility samples). The series is classed as physicochemical. The following applies: for Precipitation on storage (observation): room temperature, 4° C., −20° C. As to the method: Method 2 was used to prepare the C2E2 for the dosing formulations. Specifically, Lots 050 and 005-2 were prepared using Method 2, whereas the Reference standard and MTD Lot were prepared using Method 1. For the dosing formulations, de-ionized water (DI water tap in room 18/19) was used with the C2E2 prepared using Method 2. The dosing formulations were compared with C2E2 formulations prepared using Milli-Q water. The pH of each sample was recorded and the values are listed below in Table 2.
In order to re-create the unusual solutions, 1-mL samples of C2E2 (Lots 005-2 and 050; MTD Lot; and Reference std) were made at concentrations of 100 mg/mL in Milli-Q water. A set of samples was stored at room temperature, in the refrigerator (4° C.), and in the −20° C. freezer. […] Storage at 4° C. exacerbates the precipitation of Lot 050. After 8 days, both the Reference Standard and Lot 050 have significant amounts of solid detected at 4° C. and room temperature and crystals have started to form. […] While not wishing to be bound to any particular theory, this is likely because more impurities increase the solubility.

The subject of series [2] is ^241Am contaminated rats. Put plainly: Once vs twice daily dosing ^241Am decorporation study in rats. The following applies: Zn-DTPA 13.3 mg/kg intravenous daily x5, male rats, seven days after IM ^241Am. The series is classed as in vivo, Sprague Dawley rat. The procedure: The animal study was conducted according to a protocol approved by The University of North Carolina at Chapel Hill Institutional Animal Care and Use Committee. Sixteen male Sprague Dawley rats were contaminated with ^241Am(NO3)3 (0.25 μCi) by intramuscular injection (0.1 mL, 0.1 M HNO3) into the right hind leg, under isoflurane anesthesia. Immediately after injection, body weights were recorded (Day 0 weight) and animals placed in individual metabolic cages. The 16 rats were assigned to four groups; untreated control, 5 daily oral gavage doses of 600 mg/kg C2E2 once daily, 5 days of oral gavage treatment of 300 mg/kg C2E2 twice daily or 5 daily intravenous doses of Zn-DTPA solution (13.3 mg/kg) via a jugular vein catheter. The C2E2 was from Lot 050 obtained using Method 2. The C2E2 dosing solution utilized was a 10% w/w solution in water. […] Excreted urine and feces were collected at 2, 4, 8, 10, 12, 14, 18, 20 and 24 hours after the first dose and daily for the remainder of the study. The samples were transferred to 20 mL scintillation vials, weighed and placed in a gamma counter (Wizard2 2480, Perkin Elmer) for detection of ^241Am gamma activity. In addition, following necropsy, selected tissues were removed, weighed and placed in a gamma counter (Wizard2 2480, Perkin Elmer) for detection of ^241Am gamma activity. The total amount of ^241Am administered to the animals was determined by quantifying the 59.7 keV photons emitted by ^241Am in duplicate aliquots (100 μL) of the injection solution using a gamma counter (wizard series, Perkin-Elmer). A counting window from 40-80 keV and a 60-second counting time were used for acquisition and each reading was corrected for background at acquisition. All experimental tissues and samples were counted using the same gamma counter and protocol. For all the samples, ^241Am content was expressed as a percentage of the initial dose. The femur from the leg opposite to the injection site was scaled by a factor of 20 to estimate total skeletal ^241Am burden.

Series [3] is described as follows: Protonation constants by potentiometric titration. It counts as physicochemical. The following applies: 5 mM ligand in 0.15 M KCl. As to the method: The protonation constants for C2E2 were determined by preparing a 5 mM solution of free ligand in 0.15 M KCl. The constants were calculated from three replicates, with each experiment consisting of a titration with acid, followed by a titration with base. After each addition of titrant, a 30 second equilibration time passed before pH measurement with a Seven Easy pH meter and (Ag/AgCl reference) glass electrode (Metler Tolledo). At the end of the titrations, the presence of C2E2 was confirmed by HPLC-CAD. Evaluation of the titration curve for C2E2 (FIG. 31) identified 6 pKa values that correspond with the three tertiary amines and three carboxylic acids. The values were determined by refinement using […] software. The pKa values determined for C2E2 are consistent with DTPA analogues previously investigated for use as MRI contrast agents with two carboxylic acids are functionalized such as DTPA-BMA and DTPA-BBA (Rizkalla, E. N., et al., Inorganic Chemistry, 32, 582-586, (1993) and Geraldes C. F., et al., Journal of the Chemical Society-Dalton Transactions, 327-335 (1995)).

Series [4] is described as follows: Body weights and clinical observations in the rat single dose decorporation study. It counts as in vivo, Sprague Dawley rat. The following applies: iv Ca-DTPA 14 mg/kg, ad libitum; for Mean body weight: in g (unit assumed). The source says:
Each rat was weighed at contamination (Day 0) and the terminal body weight (Day 7) was taken at necropsy.

For series [5] the following is noted: comparison values; cited from earlier work.
Series [6] in a line: Polymorph stability (DSC, competitive ripening, storage). The series is classed as physicochemical. The following applies: higher melting point, lower solubility. As to the method:
Samples of C2E2 (˜5 mg) were crimped and evaluated by DSC over a range of 25° C. to 320° C. with a heating rate of 10.00° C./min. A sample was also cycled three times from 25 to 150° C. with a heating rate of 10° C./min and a cooling rate of 5° C./min. Both the MTD Lot and the Reference Standard show a melting point near 120° C. Lot 050 has a melting point of about 140° C.
50 mg each of Lot 050 and the Reference standard were combined in 500 μL of water and stirred at room temperature overnight. After stirring, the remaining solid was filtered from the liquid, allowed to dry and analyzed by DSC.

In series [7] the test system is ^241Am contaminated rats. Put plainly: C2E2 single dose ^241Am decorporation in rats (IM contamination). The series is classed as in vivo, Sprague Dawley rat. The following applies: DTPA 14 mg/kg IV, ad lib; single dose 24 h after IM ^241Am, 7 days, female rats. The procedure: This study was to assess the efficacy of a single oral gavage dose of C2E2 in ^241Am contaminated rats. A 200 μL aliquot was withdrawn from a stock solution of ^241Am nitrate (0.1 mCi in 5 mL 1 M HNO3), evaporated to dryness, dissolved in concentrated HNO3 (15 M, 5 mL) then evaporated to dryness and dissolved in dilute HNO3 (0.1 M, 8 mL) to form the injection solution. Groups of 4 female Sprague-Dawley rats were contaminated with 250 nCi of ^241Am nitrate by IM injection ([…]) then were administered single doses of C2E2 by gavage at 200, 600, or 1000 mg/kg under ad lib feeding conditions utilizing a 10% w/w solution in sterile water (dose volumes were 2, 6, and 10 mL/kg, for the 200, 600, and 1000 mg/kg doses, respectively). For the fasted component of the study, the animals were fasted 24 hours before treatment then for 2 hours post drug administration. Control groups with ad lib access to food and water were either untreated or administered an IV dose of the calcium salt of DTPA (Ca-DTPA) at 14 mg/kg (target dose volume of 0.7 mL/kg and concentration of 20 mg/mL). Treatment was administered 1 day after contamination. All animals were euthanized 7 days after contamination and the following tissues were collected: liver, both kidneys, both femurs as well as the ipsilateral and the contralateral hind leg muscle tissue and the pelt from the injection site. Urine and feces were collected from the time of contamination through euthanasia. Cage washings were also collected at the end of the study and considered part of total urine collection. Two aliquots (100 μL) of the injection solution were removed and ^241Am gamma activity was determined using radiomatic detection. The average of these standards is the injected dose used for all animals. All tissues and samples were counted in a similar manner. Americium content was expressed as a percentage of the injected dose. Overall recovery of radioactivity across all groups in this study was approximately 90%. […] The primary route by which both DTPA and C2E2 enhanced elimination of ^241Am occurred was by urinary clearance. […] Fecal clearance of ^241Am was not altered by feeding status, an observation that is consistent with the similar liver burden between the two groups at the end of the study. […] As with DTPA, enhanced decorporation by C2E2 occurred through enhanced urinary clearance.
Male and female Sprague Dawley rats (n=4/gender/dose) were administered single oral doses of diethylenetriaminepentaacetic acid diethyl ester (C2E2) by gavage 24 hours after intramuscular contamination with ^241Am(NO3)3 (250 nCi) under ad libitum and fasted conditions. Animals received single oral nominal doses of 200, 600, or 1000 mg/kg C2E2. Untreated animals and animals treated with an intravenous dose of Ca-DTPA ([…]) 24 hours after contamination served as controls; only ad libitum conditions were used for control animals. Total radionuclide decorporation and radionuclide tissue burden were evaluated seven days after contamination.
Male and female Sprague Dawley rats were contaminated with ^241Am(NO3)3 (0.25 μCi) by intramuscular injection (0.1 mL, 0.1 M HNO3) into the right hind leg, under isoflurane anesthesia. Immediately after injection, body weights were recorded (Day 0 weight) and animals were placed in individual metabolic cages.
Approximately eight hours after contamination—and 16 hours before test article administration—rats assigned to the Fasted groups had access to food restricted by removing the food chamber from their metabolic cages and collecting all loose chow from their housing chambers. Food chambers were replaced 1 hour after oral gavage treatment, restoring access to food. At all other times all animals had ad libitum access to food.
Male and female Sprague-Dawley rats assigned to test groups each received a single oral gavage dose of 0, 200, 600, or 1000 mg/kg of C2E2 utilizing a 10% w/w solution in water 24 hours after contamination. […]

Turning to `CCOC(=O)CN(CCN(CCN(CC(=O)O)CC(=O)OCC)CC(=O)O)CC(=O)O` [Reference Standard, 6,9-bis(carboxymethyl)-3-(2-ethoxy-2-oxoethyl)-11-oxo-12-oxa-3,6,9-triazatetradecan-1-oic acid], in series [1] (100 mg/mL in Milli-Q water, regardless of storage temperature), the “Time at which material starts to precipitate” value was no more than 24 h. Also, the “pH of formulations prepared using Milli-Q water” value (“pH … using Milli-Q water” below) in series [1] (100 mg/mL, listed as Purified C2E2 (Reference std)) worked out at 2.43.

`O=C([O-])CN(CCN(CC(=O)[O-])CC(=O)[O-])CCN(CC(=O)[O-])CC(=O)[O-].[Na+].[Na+].[Na+].[Zn+2]` [i.v. Control, reference compound]: in series [2], the “Total Decorporation” value is reported as 54.0 ± 3.9 % of injected dose.

Regarding `CCOC(=O)CN(CCN(CCN(CC(=O)O)CC(=O)OCC)CC(=O)O)CC(=O)O` [MTD Lot, 6,9-bis(carboxymethyl)-3-(2-ethoxy-2-oxoethyl)-11-oxo-12-oxa-3,6,9-triazatetradecan-1-oic acid], the “pH … using Milli-Q water” value in series [1] (100 mg/mL) is 2.35. In series [1] (100 mg/mL in Milli-Q water), the “Precipitation on storage (observation)” value is recorded as “do not come out of solution”.

In series [3], `CCOC(=O)CN(CCN(CCN(CC(=O)O)CC(=O)O)CC(=O)O)CC(=O)O` [C2E1] registered a PKa2 of 2.99 ± 0.05, a pKa1 of 6.35, a pKa3 of 1.72 ± 1.5 and a pKa4 of 1.18 ± 0.45. In series [3], this compound yielded a pKa5 of less than 1.5 and a pKa6 of less than 1.5.

For `O=C([O-])CN(CCN(CC(=O)[O-])CC(=O)[O-])CCN(CC(=O)[O-])CC(=O)[O-].[Ca+2].[Na+].[Na+].[Na+]` [Ca-DTPA, reference compound], the “Mean Percentage Body Weight Change” value in series [4] (Female) was −0.1 ± 1.9%; in series [4] (Male) it was 4.5 ± 6.1%. In addition, the Mean body weight stood at 273.6 ± 7.7 in series [4] (female rats, Day 0); 273.3 ± 11.2 in series [4] (female rats, Day 7 (terminal)); 301.0 ± 4.0 in series [4] (male rats, Day 0); 314.6 ± 20.4 in series [4] (male rats, Day 7 (terminal)).

Consider `O=C(O)CN(CCN(CC(=O)O)CC(=O)O)CC(=O)O` [EDTA], for which the “Stability of the gadolinium complex, log K” value in series [5] was 17.0.

Turning to `CCOC(=O)CN(CCN(CCN(CC(=O)O)CC(=O)OCC)CC(=O)O)CC(=O)O` [Lot 005-2, 6,9-bis(carboxymethyl)-3-(2-ethoxy-2-oxoethyl)-11-oxo-12-oxa-3,6,9-triazatetradecan-1-oic acid], the “pH … using Milli-Q water” value in series [1] (100 mg/mL) was determined as 2.54. For the same compound, the “Precipitation on storage (observation)” value in series [1] (100 mg/mL in Milli-Q water) was “do not come out of solution”.

As for `CCOC(=O)CN(CCN(CCN(CC(=O)O)CC(=O)OCC)CC(=O)O)CC(=O)O` [Lot 050, 6,9-bis(carboxymethyl)-3-(2-ethoxy-2-oxoethyl)-11-oxo-12-oxa-3,6,9-triazatetradecan-1-oic acid], in series [6], the “Relative stability of polymorph” value is listed as “most stable”. Further, the entries for the “pH of formulations prepared using de-ionized water” value in series [1] (20 mg/mL), in series [1] (60 mg/mL) and in series [1] (100 mg/mL) were 3.04, 2.93 and 2.93, respectively. In series [1] (100 mg/mL), the “pH … using Milli-Q water” value is listed as 2.60. Moreover, the “Precipitation on storage (observation)” value in series [1] (100 mg/mL in Milli-Q water) was “begins to come out of solution after three days”.

With “diethylenetriamine pentaacetic acid [DTPA]”, in series [7], the “Cage Wash ^241Am” value is reported as 3.6 ± 0.8%, the “Feces ^241Am” value came to 10.3 ± 1.7%, the Liver burden is 12.3 ± 1.2 % injected and the “Total Decorporation” value worked out at 36.1 ± 4.6 % injected. Also, the “Urine ^241Am” value in series [7] came out at 22.1 ± 2.6%. Besides, the “Stability of the gadolinium complex, log K” value in series [5] is 22.5.
